{"source": "patent US20220023419A1", "about": "“INHIBITING INFLAMMATION” (THE COUNCIL OF THE QUEENSLAND INSTITUTE OF MEDICAL RESEARCH, priority 2018, published 2022)", "system": "EpCAM+ epithelial cells in intestinal organoids", "assay": "Intestinal organoids from small intestine cultured with IFNγ, MHC class-II expression", "type": "cell-based, mouse", "conditions": "organoids from B6.MHC class-II-GFP or B6.WT mice cultured with IFNγ", "text": "High levels of IFN-γ are secreted by both ILC1 and by conventional T cells in the small intestine. The mechanisms controlling MHC class-II expression by IEC, focusing on interferon (IFN) γ signalling were delineated, since this cytokine is known to potently induce MHC class-II expression. […] To understand the potential sources of IFNγ driving the expression of MHC class II, Rag^−/− common-γ-chain^−/− which lack innate lymphocyte populations, and Rag^−/− mice that lack only conventional TCR-rearranged T cells, were analyzed. […] After TBI-induced inflammation, conventional T cells were required for the upregulation of MHC class II in the ileum. […] In contrast, TBI induced IFN-γ secretion from conventional T cells (CD4^+ Tcon, CD8^+ Tcon) but not innate lymphocyte populations (not shown). […] Thus, constitutive MHC class-II expression on IEC in the ileum causes local T cell activation and IFNγ secretion, consistent with the induction of a local cytokine feed-forward cascade that amplifies MHC class-II expression on IEC. In order to confirm that the induction of MHC class-II expression by IEC was a direct effect of IFNγ, intestinal organoids were cultured from the small intestine of B6.MHC class-II-GFP or B6.WT mice with IFNγ."}
{"substance": "IFNγ: cytokine added to intestinal organoid cultures; known to potently induce MHC class-II expression", "values": [{"measurement": "MHC class-II expression by EpCAM+ epithelial cells in organoids", "value": "did so rapidly in the presence of IFNγ"}]}
